Data taken from patent US20220288051A1, “METHODS FOR TREATING CANCER USING SERIAL ADMINISTRATION OF E3 UBIQUITIN LIGASE DEGRADERS” (Dana-Farber Cancer Institute, Inc., priority 2019, published 2022).
“Also recorded” adds a separate entry of the source.

Columns and labels:
MM.1S-Cas9+ cells = assay: Genome-scale CRISPR/Cas9 gene editing (LOF) resistance screens; type: cell-based, human; conditions: for sgRNA enrichment in resistant cells, long-term screen: long-term treatment, NGS of sgRNAs; for sgRNA enrichment, extended degronimid treatment: Thal-SNS-032-resistant MM.1S cells, additional 2 weeks
Method: MM.1S cells transduced with lentiviral construct for SpCas9 were kindly provided from Quinlan Sievers (Ebert Lab, BWH/DFCI). MM.1S cells were also transduced with lentiviral construct for dCas9-VP64 (purchased from Addgene).
ii. Lentiviral transductions with sgRNA libraries: For the screen with the GECKOv2 sgRNA library, tumor cell transductions were performed in batches of 8×10^7 cells per sub-library for each replicate. Cells were incubated for 16 hrs in cell medium containing polybrene (2 μg/mL; Santa Cruz Biotechnology), 10 mM HEPES (pH 7.4) (Sigma-Aldrich) and viral prep (4 mL) diluted to achieve an MOI of 0.4. After the end of the incubation with the viral preps, cells were washed and incubated for an additional day. Transduced cells were cultured at an initial density of 1×10^6 cells/mL and were treated with puromycin (1 μg/mL) for up to 14 days immediately after transduction. After puromycin selection, MM.1S-Cas9^+ cells transduced with each GeCKOv2 sublibrary were plated at 60×10^6 cells per flask (T175, 100 mL) to enable coverage of ˜1000× and were sub-cultured at four to five-day intervals to prevent confluence. At each passage, cells were harvested, washed with PBS (Corning, N.Y.), pelleted (5000 rpm, 5 min, 4° C.) and frozen as cell pellets (−80° C.) for next generation sequencing, and also replated at 60×10^6 cells to maintain 1000× coverage.
For the genome-scale screens with the Brunello sgRNA library, tumor cell transductions were performed in batches of 5×10^7 cells per library for six replicates. Cells were incubated (18 h) in cell medium containing polybrene (5 μg/mL; Santa Cruz Biotechnology), 10 mM HEPES (pH 7.4) (Sigma-Aldrich) and viral prep (30 mL) diluted 1:1. Transduced cells were cultured at an initial density of 1×10^6 cells/mL and were treated with puromycin (1 μg/mL) for up to 5 days additional two days from transduction. After stable transduction, pooled MM.1S cells were plated at 40×10^6 cells per flask (T175, 100 mL) to enable coverage of 500× and were sub-cultured at three- to four day intervals to prevent confluence. At each passage, cells were harvested, washed with PBS (Corning), pelleted (5000 rpm, 5 min, 4° C.) and frozen as cell pellets (−80° C.) for next generation sequencing, and also replated at 40×10^6 cells (˜500× coverage).
iii. […] Following treatments, all cells were serially cultured without drug and allowed to regrow for as long as required to enable reseeding (60×10^6 cells per flask, 100 mL) and retreatment with individual drugs while maintaining ˜1000× coverage throughout. Concomitant with retreatment, remaining cells were frozen (−80° C.; 20% FBS/DMSO) for later analysis or assessed for drug resistance/sensitivity using CTG assays. Between treatments, and in order to maintain the health of cultures, dead cells were periodically removed using Ficoll centrifugation (1,500 rpm for 10-20 min). For all CRISPR drug treatment experiments, aliquots of MM.1S-Cas9+ cells transduced with the GeCKO(Sanjana et al., 2014; Shalem et al., 2014) or Brunello (Doench et al., 2016) sgRNA libraries were frozen immediately prior to experimentation to determine the baseline distribution of sgRNAs in the cell population.
For “long-term” treatment screens with Thal-SNS-032-, ARV-771- and MZ-1-resistant cells, we continuously treated MM.1S-Cas9+ cells (40×10^6, —500× coverage) transduced with the Brunello sgRNA library (4 weeks post-puromycin selection) with either each compound's (IC20) or vehicle control. Cells were serially passaged every 3-4 days to prevent confluence, each time replating at ˜500× coverage (100 mL) at the same time replenishing each compound or vehicle. Drug treatments were paused if cell numbers fell below 10×10^6 per flask, allowing cells to recover and regrow, and treatments were resumed at a lower concentration when cell numbers reached 40×10^6. At each passage, cells were assayed for drug sensitivity/resistance using CTG. […]

MM.1S Cas9+ cells = assay: Dose-response assay of cells with individual sgRNA knock-outs, CTG; type: cell-based, human
Method: Non-targeting control sgRNAs and COPS7B sgRNAs were from GeCKOv2. Four sgRNAs were generated per each gene, except from COPS7B, for which 6 sgRNAs were available (Table S2). All sgRNAs were synthesized by CustomArray Inc (Bothell, Wash.). Cloning was performed according to the protocol published by Zhang et al. (media.addgene.org/cms/filer_public/4f/ab/4fabc269-56e2-4ba5-92bd-09dc89c1e862/zhang_lenticrisprv2_and_lentiguide_oligo_cloning_protocol_1.pdf) using a pHKO9 vector. Briefly, to clone the sgRNA guide sequence, plasmids were digested with BsmBI (New England Biolabs, Ipswich, Mass.) at 55° C. for 1 hour. Oligonucleotides for each sgRNA guide sequence were annealed and phosphorylated using T4 Ligation Buffer and T4 polynucleotide kinase (New England Biolabs) at 37° C. for 30 minutes and then annealed by heating to 95° C. for 5 minutes and cooling to 25° C. at 1.5° C./minute. Using T4 ligation buffer and T4 ligase (New England Biolabs), annealed oligos were ligated into gel purified vectors (Qiagen) at 65° C. for 10 minutes. 2.5 ug of the ligation product were transformed in 30 uL E. coli electrocompetent cells (Lucigen E.cloni 10 G ELITE PLUS, Invitrogen). Subsequently, 500 uL of transformed cells were plated on LB Agar-AmpR (ThermoFisher Scientific) and incubated overnight at 37° C. Three colonies per plate were then picked and inoculated in a mini-prep culture (Qiagen). The product was then digested with BsmBI and XhoI (New England Biolabs) at 37° C. for 1 h and compared to the uncut control on 1% agarose gel. One out of three colonies (10 uL) was then precultured in 3 mL LB Broth-AmpR and shaken at 37° C. for 6 h. Afterwards it was transferred to a 250 mL LB Broth-AmpR flask and incubated overnight at 37° C. Each culture was then inoculated into a maxiprep culture (Qiagen).
Also, CRBN, VHL, TCEBJ, TCEB2, UBE2R2 and FBXW2 sgRNA are selected from Brunello library and cloned using pLVX-hyg-sgRNA1 Vector system (Takara Bio USA, CA) according to the manufacturer's manual. b(takarabio.com/assets/documents/User %20Manual/Lenti-X_CRISPR-Cas9_System_User_Manual_121316.pdf)
ii. Lentiviral transductions with constructs for individual sgRNAs: 500×10^3 to 1×10^6 MM.1S Cas9 cells were plated in 50 uL of complete RPMI1640 medium per well in a 24-well plate, and additional 100 uL of complete RPMI1640 medium were added to cover the well completely. Cells were incubated in cell medium containing polybrene (5 to 8 μg/mL; Santa Cruz Biotechnology), and viral prep. 24 hours after addition of viral preps, media were changed and, after another 48 h, puromycin selection (1 to 2 ug/ml per well) was started. After 7 days of puromycin selection, transduced MM.1S Cas9+ cells were collected and expanded in T75 flasks.
iii. […] In the case of Thal-SNS-032 or ARV771, cells are plated 384-well plate and treated each concentration described at figure and viability assays were performed at 72 hrs.

Row | Structure (SMILES) | sgRNA enrichment in resistant cells, long-term screen (MM.1S-Cas9+ cells) | activity against cells with sgRNAs against CRBN (MM.1S Cas9+ cells; MM.1S cells) | response of cells with sgRNAs against COPS7B or COPS8 (MM.1S Cas9+ cells; compared to parental MM.1S cells) | sgRNA enrichment, extended degronimid treatment (MM.1S-Cas9+ cells) | Thal-SNS-032 responsiveness after individual sgRNAs (MM.1S Cas9+ cells; sgRNAs for COPS7B, COPS2, DDB1 or COPS8) | response to dBET6 after individual sgRNAs (MM.1S Cas9+ cells; sgRNAs for COPS7B, COPS8 or CRBN)
1 | Cc1ncsc1-c1ccc([C@H](C)NC(=O)[C@@H]2C[C@@H](O)CN2C(=O)[C@@H](NC(=O)COCCCOCCNC(=O)C[C@@H]2N=C(c3ccc(Cl)cc3)c3c(sc(C)c3C)-n3c(C)nnc32)C(C)(C)C)cc1 [ARV-771] | enrichment of sgRNAs for CUL2, VHL itself | no significant changes in ARV771 activity | decreased response | – | – | –
2 | CC(C)(C)c1cnc(CSc2cnc(NC(=O)C3CCN(CC(=O)NCCOCCOCCOCCNc4cccc5c4C(=O)N(C4CCC(=O)NC4=O)C5=O)CC3)s2)o1 (stereo not drawn) [Thal-SNS-032] | pronounced enrichment of sgRNAs for CRBN itself, and COP9 signalosome complex genes | – | – | CRBN is the only gene which exhibits enrichment of its sgRNAs; also recorded: further enrichment of MM cells containing sgRNA against CRBN | decrease the Thal-SNS-032 responsiveness | –
3 | Cc1sc2c(c1C)C(c1ccc(Cl)cc1)=N[C@@H](CC(=O)NCCCCCCCCNC(=O)COc1cccc3c1C(=O)N(C1CCC(=O)NC1=O)C3=O)c1nnc(C)n1-2 (stereo partly drawn) [dBET6] | significant enrichment of sgRNAs targeting CRBN itself, as well as other components or regulators of the cullin-RING ligase (CRL) complex | – | – | CRBN is the only gene which exhibits enrichment of its sgRNAs; also recorded: further enrichment of MM cells containing sgRNA against CRBN | – | decreases the response of MM.1S cells to dBET6
